# In PubChem BioAssay AID2060909 (Molecular Pharmacology Branch, DTP, NCI, 2025):
# System: 362531-283-R-J2-PDC complex spheroid viability
# Experiment: Anticancer human tumor 362531-283-R-J2-PDC patient-derived colon adenocarcinoma cell line growth inhibition [RAS]
# Conditions: for IC50: curve of first compound; for viability, T/C: stronger effect = lower value
# Summary of the method: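 Multi-cell-type spheroids: tumor cells plus HUVEC endothelial cells and mesenchymal stem cells. RAS-pathway inhibitors were combined with targeted agents, each dosed in half-log steps down from clinical Cmax, or from 10 microM when Cmax was unknown.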
# [1] = second compound 0.000949 µM, first compound 0.00316 µM
# [2] = second compound 0.000949 µM, first compound 0.01 µM
# [3] = second compound 0.000949 µM, first compound 0.0316 µM
# [4] = second compound 0.000949 µM, first compound 0.1 µM
# [5] = second compound 0.000949 µM, first compound 0.316 µM
# [6] = second compound 0.000949 µM, first compound 1 µM
# [7] = second compound 0.003 µM, first compound 0.00316 µM
# [8] = second compound 0.003 µM, first compound 0.01 µM
# [9] = second compound 0.003 µM, first compound 0.0316 µM
# [10] = second compound 0.003 µM, first compound 0.1 µM
# [11] = second compound 0.003 µM, first compound 0.316 µM
# [12] = second compound 0.003 µM, first compound 1 µM
# [13] = second compound 0.00949 µM, first compound 0.00316 µM
# [14] = second compound 0.00949 µM, first compound 0.01 µM
# [15] = second compound 0.00949 µM, first compound 0.0316 µM
# [16] = second compound 0.00949 µM, first compound 0.1 µM
# [17] = second compound 0.00949 µM, first compound 0.316 µM
# [18] = second compound 0.00949 µM, first compound 1 µM
# [19] = second compound 0.03 µM, first compound 0.00316 µM
# [20] = second compound 0.03 µM, first compound 0.01 µM
# [21] = second compound 0.03 µM, first compound 0.0316 µM
# [22] = second compound 0.03 µM, first compound 0.1 µM
# [23] = second compound 0.03 µM, first compound 0.316 µM
# [24] = second compound 0.03 µM, first compound 1 µM
# [25] = second compound 0.0949 µM, first compound 0.00316 µM
# [26] = second compound 0.0949 µM, first compound 0.01 µM
# [27] = second compound 0.0949 µM, first compound 0.0316 µM
# [28] = second compound 0.0949 µM, first compound 0.1 µM
# [29] = second compound 0.0949 µM, first compound 0.316 µM
# [30] = second compound 0.0949 µM, first compound 1 µM
# [31] = second compound 0.3 µM, first compound 0.00316 µM
# [32] = second compound 0.3 µM, first compound 0.01 µM
# [33] = second compound 0.3 µM, first compound 0.0316 µM
# [34] = second compound 0.3 µM, first compound 0.1 µM
# [35] = second compound 0.3 µM, first compound 0.316 µM
# [36] = second compound 0.3 µM, first compound 1 µM
# 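Further: spheroids exposed to the agents for 7 days before readout.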
# 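Wherever viability, T/C is given: luminescence viability as percent of DMSO vehicle control wells.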
smiles,measurement,setting,value
C=CC(=O)Nc1cc(Nc2nccc(-c3cn(C)c4ccccc34)n2)c(OC)cc1N(C)CCN(C)C + CCn1c(-c2cccnc2C(C)OC)c2c3cc(ccc31)N1CCOC(CC(NC(=O)C(C(C)C)N(C)C(=O)C3(F)CCN(C(=O)C#CC(C)(C)N(C)C)CC3)C(=O)N3CCCC(N3)C(=O)OCC(C)(C)C2)C1,IC50,second compound 0.000949 µM,> 1 µM
same,IC50,second compound 0.003 µM,> 1 µM
same,IC50,second compound 0.00949 µM,> 1 µM
same,IC50,second compound 0.03 µM,> 1 µM
same,IC50,second compound 0.0949 µM,> 1 µM
same,IC50,second compound 0.3 µM,> 1 µM
same,"viability, T/C",[1],92.4%
same,"viability, T/C",[2],93.8%
same,"viability, T/C",[3],104%
same,"viability, T/C",[4],98.1%
same,"viability, T/C",[5],98%
same,"viability, T/C",[6],75.1%
same,"viability, T/C",[7],108%
same,"viability, T/C",[8],107%
same,"viability, T/C",[9],103%
same,"viability, T/C",[10],98.6%
same,"viability, T/C",[11],95.4%
same,"viability, T/C",[12],68.8%
same,"viability, T/C",[13],112%
same,"viability, T/C",[14],103%
same,"viability, T/C",[15],101%
same,"viability, T/C",[16],104%
same,"viability, T/C",[17],101%
same,"viability, T/C",[18],82.2%
same,"viability, T/C",[19],98.6%
same,"viability, T/C",[20],99.9%
same,"viability, T/C",[21],100%
same,"viability, T/C",[22],101%
same,"viability, T/C",[23],101%
same,"viability, T/C",[24],82.7%
same,"viability, T/C",[25],98.4%
same,"viability, T/C",[26],97.1%
same,"viability, T/C",[27],99%
same,"viability, T/C",[28],106%
same,"viability, T/C",[29],106%
same,"viability, T/C",[30],79.2%
same,"viability, T/C",[31],91.3%
same,"viability, T/C",[32],90.1%
same,"viability, T/C",[33],99.6%
same,"viability, T/C",[34],96.6%
same,"viability, T/C",[35],104%
same,"viability, T/C",[36],83.6%
CC(Nc1ccc2c(c1)OCCn1cc(N3C(=O)OCC3C(F)F)nc1-2)C(N)=O (stereo unspecified) + CCn1c(-c2cccnc2C(C)OC)c2c3cc(ccc31)N1CCOC(CC(NC(=O)C(C(C)C)N(C)C(=O)C3(F)CCN(C(=O)C#CC(C)(C)N(C)C)CC3)C(=O)N3CCCC(N3)C(=O)OCC(C)(C)C2)C1,IC50,second compound 0.000949 µM,1.53 µM
same,IC50,second compound 0.003 µM,1.29 µM
same,IC50,second compound 0.00949 µM,1.68 µM
same,IC50,second compound 0.03 µM,2.09 µM
same,IC50,second compound 0.0949 µM,1.65 µM
same,IC50,second compound 0.3 µM,1.51 µM
same,"viability, T/C",[3],103%
same,"viability, T/C",[4],107%
same,"viability, T/C",[5],92.1%
same,"viability, T/C",[6],59.6%
same,"viability, T/C","second compound 0.000949 µM, first compound 3.16 µM",34.2%
same,"viability, T/C","second compound 0.000949 µM, first compound 10 µM",29%
same,"viability, T/C",[9],106%
same,"viability, T/C",[10],95.5%
same,"viability, T/C",[11],92.9%
same,"viability, T/C",[12],52.4%
same,"viability, T/C","second compound 0.003 µM, first compound 3.16 µM",36.8%
same,"viability, T/C","second compound 0.003 µM, first compound 10 µM",24.4%
same,"viability, T/C",[15],95.4%
same,"viability, T/C",[16],106%
same,"viability, T/C",[17],87.8%
same,"viability, T/C",[18],62.4%
same,"viability, T/C","second compound 0.00949 µM, first compound 3.16 µM",35.7%
same,"viability, T/C","second compound 0.00949 µM, first compound 10 µM",28.4%
same,"viability, T/C",[21],98.4%
same,"viability, T/C",[22],96.5%
same,"viability, T/C",[23],87.1%
same,"viability, T/C",[24],65.3%
same,"viability, T/C","second compound 0.03 µM, first compound 3.16 µM",41.7%
same,"viability, T/C","second compound 0.03 µM, first compound 10 µM",24.9%
same,"viability, T/C",[27],93.9%
same,"viability, T/C",[28],91.4%
same,"viability, T/C",[29],88.5%
same,"viability, T/C",[30],60.5%
same,"viability, T/C","second compound 0.0949 µM, first compound 3.16 µM",36.1%
same,"viability, T/C","second compound 0.0949 µM, first compound 10 µM",24.5%
same,"viability, T/C",[33],93.4%
same,"viability, T/C",[34],85.5%
same,"viability, T/C",[35],83%
same,"viability, T/C",[36],56.9%
same,"viability, T/C","second compound 0.3 µM, first compound 3.16 µM",36.6%
same,"viability, T/C","second compound 0.3 µM, first compound 10 µM",28%
O=C(c1ccc(F)c(F)c1Nc1ccc(I)cc1F)N1CC(O)([C@@H]2CCCCN2)C1 + CCn1c(-c2cccnc2C(C)OC)c2c3cc(ccc31)N1CCOC(CC(NC(=O)C(C(C)C)N(C)C(=O)C3(F)CCN(C(=O)C#CC(C)(C)N(C)C)CC3)C(=O)N3CCCC(N3)C(=O)OCC(C)(C)C2)C1,IC50,second compound 0.000949 µM,0.628 µM
same,IC50,second compound 0.003 µM,0.537 µM
same,IC50,second compound 0.00949 µM,0.573 µM
same,IC50,second compound 0.03 µM,0.684 µM
same,IC50,second compound 0.0949 µM,0.58 µM
same,IC50,second compound 0.3 µM,0.604 µM
same,"viability, T/C",[1],94%
same,"viability, T/C",[2],94.9%
same,"viability, T/C",[3],101%
same,"viability, T/C",[4],91.3%
same,"viability, T/C",[5],88%
same,"viability, T/C",[6],24.4%
same,"viability, T/C",[7],102%
same,"viability, T/C",[8],108%
same,"viability, T/C",[9],107%
same,"viability, T/C",[10],83.2%
same,"viability, T/C",[11],81.8%
same,"viability, T/C",[12],18.4%
same,"viability, T/C",[13],86%
same,"viability, T/C",[14],108%
same,"viability, T/C",[15],102%
same,"viability, T/C",[16],88.8%
same,"viability, T/C",[17],82.1%
same,"viability, T/C",[18],20.9%
same,"viability, T/C",[19],97.7%
same,"viability, T/C",[20],98.6%
same,"viability, T/C",[21],104%
same,"viability, T/C",[22],91.2%
same,"viability, T/C",[23],99%
same,"viability, T/C",[24],26.4%
same,"viability, T/C",[25],105%
same,"viability, T/C",[26],103%
same,"viability, T/C",[27],103%
same,"viability, T/C",[28],81.8%
same,"viability, T/C",[29],86.8%
same,"viability, T/C",[30],22.3%
same,"viability, T/C",[31],89%
same,"viability, T/C",[32],90.8%
same,"viability, T/C",[33],99%
same,"viability, T/C",[34],82%
same,"viability, T/C",[35],88.2%
same,"viability, T/C",[36],20.3%
